Data: patent US20230089867A1, “CYCLIC PENTAMER COMPOUNDS AS PROPROTEIN CONVERTASE SUBTILISIN/KEXIN TYPE 9 (PCSK9) INHIBITORS FOR THE TREATMENT OF METABOLIC DISORDER” (Novartis AG, priority 2018, published 2023)

Target: human PCSK9 (Homo sapiens, UniProt Q8NBP7)
Experiment: PCSK9 ligand binding TR-FRET assay (interference with binding of human PCSK9 to human LDLR)
Settings: for Max % inhibition: PCSK9 FRET assay, efficacy (Amax), 100% = 1 uM unlabeled human PCSK9, 0% = DMSO; for IC50: TR-FRET, human PCSK9 Alexa Fluor 647 / human LDLR extracellular domain-Europium Kryptate, read-out: PCSK9 FRET Assay IC50
Summary of the method: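 Threefold compound dilutions were pre-incubated 30 min with PCSK9, after which 4 nM Europium Kryptate-tagged human LDLR ectodomain was added for a further 2 h.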

Sequence of human PCSK9 (Q8NBP7 153-692): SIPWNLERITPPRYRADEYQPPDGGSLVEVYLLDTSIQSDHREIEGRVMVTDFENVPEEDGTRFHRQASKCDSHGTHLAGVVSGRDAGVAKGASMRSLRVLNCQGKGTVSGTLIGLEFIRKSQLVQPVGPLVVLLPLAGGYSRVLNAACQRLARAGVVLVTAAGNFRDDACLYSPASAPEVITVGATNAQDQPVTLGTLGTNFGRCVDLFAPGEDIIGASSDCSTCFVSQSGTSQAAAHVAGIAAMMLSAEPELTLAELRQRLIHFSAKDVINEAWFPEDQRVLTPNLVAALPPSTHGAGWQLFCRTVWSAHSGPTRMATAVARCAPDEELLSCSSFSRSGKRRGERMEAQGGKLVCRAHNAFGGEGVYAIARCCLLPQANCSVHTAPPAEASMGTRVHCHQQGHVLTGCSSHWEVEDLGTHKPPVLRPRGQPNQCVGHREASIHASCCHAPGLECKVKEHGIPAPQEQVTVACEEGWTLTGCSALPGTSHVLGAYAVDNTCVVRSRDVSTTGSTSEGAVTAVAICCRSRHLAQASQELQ
Sequence of human PCSK9 (Q8NBP7 31-152 partner limits assumed): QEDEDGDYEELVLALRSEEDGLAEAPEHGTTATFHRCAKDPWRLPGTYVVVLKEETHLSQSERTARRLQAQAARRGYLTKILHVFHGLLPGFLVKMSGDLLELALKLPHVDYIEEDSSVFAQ

| Max % inhibition | IC50 | Structure (SMILES) |
| --- | --- | --- |
| 101.80% | 2.6 nM | COC[C@@H]1NC(=O)[C@H](C)N(Cc2ccc(Cl)cc2Oc2ccc(-c3cnc(CN(C)C)n3C)cc2)C(=O)C[C@@H](Cc2cccc(C(F)F)c2)C(=O)N(C)[C@@H](C)CNC(=O)C[C@H](Cc2ccc(Cl)cc2)N(C)C1=O [Compound 56, (2S,5S,8S,13S,16R)-1-(4-chloro-2-(4-(2-((dimethylamino)methyl)-1-methyl-1H-imidazol-5-yl)phenoxy)benzyl)-8-(4-chlorobenzyl)-16-(3-(difluoromethyl)benzyl)-5-(methoxymethyl)-2,7,13,14-tetramethyl-1,4,7,11,14-pentaazacyclooctadecane-3,6,10,15,18-pentaone] |
| 98.98% | 1.4 nM | COC[C@@H]1NC(=O)[C@H](CCCN2CCOCC2)N(Cc2ccc(Cl)cc2Oc2ccc(-c3cnc(CN(C)C)n3C)cc2)C(=O)C[C@@H](Cc2ccccc2)C(=O)N(C)[C@@H](C)CNC(=O)C[C@H](Cc2ccc(Cl)cc2)N(C)C1=O [Compound 158, (2S,5S,8S,13S,16R)-16-benzyl-1-(4-chloro-2-(4-(2-((dimethylamino)methyl)-1-methyl-1H-imidazol-5-yl)phenoxy)benzyl)-8-(4-chlorobenzyl)-5-(methoxymethyl)-7,13,14-trimethyl-2-(3-morpholinopropyl)-1,4,7,11,14-pentaazacyclooctadecane-3,6,10,15,18-pentaone] |
| 90.24% | 2.1 nM | COC[C@@H]1NC(=O)[C@H](CCCN(C)C)N(Cc2ccc(Cl)cc2Oc2ccc(-c3cnc(CN4CCCC4)n3C)cc2)C(=O)C[C@@H](Cc2ccccc2)C(=O)N(C)[C@H]2CCCC[C@@H]2NC(=O)C[C@H](Cc2ccc(Cl)cc2)N(C)C1=O [Compound 285, (4S,7S,10S,14R,16aS,20aS)-14-benzyl-11-(4-chloro-2-(4-(1-methyl-2-(pyrrolidin-1-ylmethyl)-1H-imidazol-5-yl)phenoxy)benzyl)-4-(4-chlorobenzyl)-10-(3-(dimethylamino)propyl)-7-(methoxymethyl)-5,16-dimethylhexadecahydrobenzo[l][1,4,7,11,14]pentaazacyclooctadecine-2,6,9,12,15(3H)-pentaone] |
| 91.51% | 3.5 nM | C[C@H]1CNC(=O)C[C@H](Cc2ccc(Cl)cc2)N(C)C(=O)[C@H](CC(=O)O)NC(=O)[C@H](C)N(Cc2ccc(Cl)cc2Oc2ccc(-c3cnc(CN(C)C)n3C)cc2)C(=O)C[C@@H](Cc2ccccc2)C(=O)N1C [Compound 213, 2-((2S,5S,8S,13S,16R)-16-benzyl-1-(4-chloro-2-(4-(2-((dimethylamino)methyl)-1-methyl-1H-imidazol-5-yl)phenoxy)benzyl)-8-(4-chlorobenzyl)-2,7,13,14-tetramethyl-3,6,10,15,18-pentaoxo-1,4,7,11,14-pentaazacyclooctadecan-5-yl)acetic acid] |
| 102.18% | 24.5 nM | COC[C@@H]1NC(=O)[C@H](C)N(Cc2ccc(C(F)F)cc2Oc2ccc(-c3cnc(CN(C)C)n3C)cc2)C(=O)C[C@@H](Cc2ccccc2)C(=O)N(C)[C@@H](C)CNC(=O)C[C@H](Cc2ccc(Cl)cc2)N(C)C1=O [Compound 42, (2S,5S,8S,13S,16R)-16-benzyl-8-(4-chlorobenzyl)-1-(4-(difluoromethyl)-2-(4-(2-((dimethylamino)methyl)-1-methyl-1H-imidazol-5-yl)phenoxy)benzyl)-5-(methoxymethyl)-2,7,13,14-tetramethyl-1,4,7,11,14-pentaazacyclooctadecane-3,6,10,15,18-pentaone] |
| 86.95% | 168 nM | COC[C@@H]1NC(=O)[C@@H](CCN(C)C)N(Cc2ccc(Cl)cc2Oc2ccc(-c3cnc(CN(C)C)n3C)cc2)C(=O)C[C@@H](Cc2ccccn2)C(=O)N(C)[C@H]2CCCC[C@@H]2NC(=O)C[C@H](Cc2ccc(Cl)cc2)N(C)C1=O [Compound 91, (4S,7S,10R,14R,16aS,20aS)-11-(4-chloro-2-(4-(2-((dimethylamino)methyl)-1-methyl-1H-imidazol-5-yl)phenoxy)benzyl)-4-(4-chlorobenzyl)-10-(2-(dimethylamino)ethyl)-7-(methoxymethyl)-5,16-dimethyl-14-(pyridin-2-ylmethyl)hexadecahydrobenzo[l][1,4,7,11,14]pentaazacyclooctadecine-2,6,9,12,15(3H)-pentaone] |
| 101.12% | 8.9 nM | COC[C@@H]1NC(=O)[C@@H](COC)N(Cc2ccc(Cl)cc2Oc2ccc(-c3cnc(CN(C)C)n3C)cc2)C(=O)C[C@@H](Cc2ccccc2)C(=O)N(C)[C@H]2CCCC[C@@H]2NC(=O)C[C@H](Cc2ccc(Cl)cc2)N(C)C1=O [Compound 8, (4S,7S,10R,14R,16aS,20aS)-14-benzyl-11-(4-chloro-2-(4-(2-((dimethylamino)methyl)-1-methyl-1H-imidazol-5-yl)phenoxy)benzyl)-4-(4-chlorobenzyl)-7,10-bis(methoxymethyl)-5,16-dimethylhexadecahydrobenzo[l][1,4,7,11,14]pentaazacyclooctadecine-2,6,9,12,15(3H)-pentaone] |
| 97.18% | 1.3 nM | COC[C@@H]1NC(=O)[C@H](CC(=O)N(C)C)N(Cc2ccc(Cl)cc2Oc2ccc(-c3cnc(CN(C)C)n3C)cc2)C(=O)C[C@@H](Cc2ccccc2)C(=O)N(C)[C@H]2CCCC[C@@H]2NC(=O)C[C@H](Cc2ccc(Cl)cc2)N(C)C1=O [Compound 269, 2-((4S,7S,10S,14R,16aS,20aS)-14-benzyl-11-(4-chloro-2-(4-(2-((dimethylamino)methyl)-1-methyl-1H-imidazol-5-yl)phenoxy)benzyl)-4-(4-chlorobenzyl)-7-(methoxymethyl)-5,16-dimethyl-2,6,9,12,15-pentaoxodocosahydrobenzo[l][1,4,7,11,14]pentaazacyclooctadecin-10-yl)-N,N-dimethylacetamide] |

Second part, the compound before the results:

| Structure (SMILES) | Max % inhibition | IC50 |
| --- | --- | --- |
| COC[C@@H]1NC(=O)[C@H](C)N(Cc2ccc(Cl)cc2Oc2ccc(-c3cnc(CN4CCCC4)n3C)cc2)C(=O)C[C@@H](Cc2ccn(C(F)F)n2)C(=O)N(C)[C@@H](C)CNC(=O)C[C@H](Cc2ccc(Cl)cc2)N(C)C1=O [Compound 63, (2S,5S,8S,13S)-1-(4-chloro-2-(4-(1-methyl-2-(pyrrolidin-1-ylmethyl)-1H-imidazol-5-yl)phenoxy)benzyl)-8-(4-chlorobenzyl)-16-((1-(difluoromethyl)-1H-pyrazol-3-yl)methyl)-5-(methoxymethyl)-2,7,13,14-tetramethyl-1,4,7,11,14-pentaazacyclooctadecane-3,6,10,15,18-pentaone] | 103.93% | 87.3 nM |
| COC[C@H]1C(=O)N(C)[C@@H](Cc2ccc(Cl)cc2)CC(=O)NC[C@H](C)N(C)C(=O)[C@H](Cc2ccccc2)CC(=O)N(Cc2ccc(Cl)cc2Oc2ccc(-c3cnc(CN(C)C)n3C)cc2)[C@H]2CC(=O)N1C2=O [Compound 13, (2S,5S,10S,13R,17S)-13-benzyl-16-(4-chloro-2-(4-(2-((dimethylamino)methyl)-1-methyl-1H-imidazol-5-yl)phenoxy)benzyl)-5-(4-chlorobenzyl)-2-(methoxymethyl)-4,10,11-trimethyl-1,4,8,11,16-pentaazabicyclo[15.2.1]icosane-3,7,12,15,19,20-hexaone] | 101.32% | 106 nM |
| COC[C@@H]1NC(=O)[C@H](C)N(Cc2ccc(Cl)cc2Oc2ccc(-c3cnc(CN(C)C)n3C)cc2)C(=O)C[C@@H](OC)C(=O)N(C)[C@@H](C)CNC(=O)C[C@H](Cc2ccc(Cl)cc2)N(C)C1=O [Compound 159, (2S,5S,8S,13S,16R)-1-(4-chloro-2-(4-(2-((dimethylamino)methyl)-1-methyl-1H-imidazol-5-yl)phenoxy)benzyl)-8-(4-chlorobenzyl)-16-methoxy-5-(methoxymethyl)-2,7,13,14-tetramethyl-1,4,7,11,14-pentaazacyclooctadecane-3,6,10,15,18-pentaone] | 55.26% | 74 nM |
| COC[C@@H]1NC(=O)[C@H](C)N(Cc2ccc(Cl)cc2Oc2ccc(-c3cnc(C4CCCN4C)n3C)cc2)C(=O)C[C@@H](Cc2ccccc2)C(=O)N(C)[C@@H](C)CNC(=O)C[C@H](Cc2ccc(Cl)cc2)N(C)C1=O (stereo partly drawn) [Compound 28, (2S,5S,8S,13S,16R)-16-benzyl-1-(4-chloro-2-(4-(1-methyl-2-(1-methylpyrrolidin-2-yl)-1H-imidazol-5-yl)phenoxy)benzyl)-8-(4-chlorobenzyl)-5-(methoxymethyl)-2,7,13,14-tetramethyl-1,4,7,11,14-pentaazacyclooctadecane-3,6,10,15,18-pentaone] | 102.04% | 3.6 nM |
| COC[C@@H]1NC(=O)[C@H](C)N(Cc2ccc(Cl)cc2Oc2ccc(-c3cnc(C(C)O)n3C)cc2)C(=O)C[C@@H](Cc2ccccc2)C(=O)N(C)[C@@H](C)CNC(=O)C[C@H](Cc2ccc(Cl)cc2)N(C)C1=O (stereo partly drawn) [Compound 167, (2S,5S,8S,13S,16R)-16-benzyl-1-(4-chloro-2-(4-(2-(1-hydroxyethyl)-1-methyl-1H-imidazol-5-yl)phenoxy)benzyl)-8-(4-chlorobenzyl)-5-(methoxymethyl)-2,7,13,14-tetramethyl-1,4,7,11,14-pentaazacyclooctadecane-3,6,10,15,18-pentaone] | 81.26% | 1.8 nM |
| COC[C@@H]1NC(=O)[C@H](C)N(Cc2ccc(Cl)cc2Oc2ccc(-c3cnc(CN4CC[C@@H](F)C4)n3C)cc2)C(=O)C[C@@H](Cc2ccccc2)C(=O)N(C)[C@@H](C)CNC(=O)C[C@H](Cc2ccc(Cl)cc2)N(C)C1=O [Compound 60, (2S,5S,8S,13S,16R)-16-benzyl-1-(4-chloro-2-(4-(2-(((R)-3-fluoropyrrolidin-1-yl)methyl)-1-methyl-1H-imidazol-5-yl)phenoxy)benzyl)-8-(4-chlorobenzyl)-5-(methoxymethyl)-2,7,13,14-tetramethyl-1,4,7,11,14-pentaazacyclooctadecane-3,6,10,15,18-pentaone] | 82.23% | 2.9 nM |
